Laboratory results: patent publication US7074596B2, “Synthesis and use of anti-reverse mRNA cap analogues” (Board of Supervisors of Louisiana State University And …, priority 2002, dated 2006)

How the values were obtained:
SP6 polymerase = target: T1, SP6 polymerase (Enterobacteria phage SP6, UniProt P06221); assay: Analysis of cap orientation in in vitro-synthesized RNA transcripts by RNase T2 + TAP digestion and anion exchange HPLC; assay type: biochemical, bacteriophage SP6; conditions: for Product observed RNase T2 + TAP: pGp* (normal orientation of the cap) / Product observed RNase T2 + TAP: 7-methylated pGp* product (reverse orientation of the cap): short RNA (43 bases) from Ncol-digested pSP-luc+, [α-32P]ATP, share of 5′ end labeled digestion product; for Orientation of incorporation into RNA (in words): RNase T2 and TAP digestion, HPLC, FIG. 2
T1 construct: purchased Promega
T1 sequence (P06221 1-874): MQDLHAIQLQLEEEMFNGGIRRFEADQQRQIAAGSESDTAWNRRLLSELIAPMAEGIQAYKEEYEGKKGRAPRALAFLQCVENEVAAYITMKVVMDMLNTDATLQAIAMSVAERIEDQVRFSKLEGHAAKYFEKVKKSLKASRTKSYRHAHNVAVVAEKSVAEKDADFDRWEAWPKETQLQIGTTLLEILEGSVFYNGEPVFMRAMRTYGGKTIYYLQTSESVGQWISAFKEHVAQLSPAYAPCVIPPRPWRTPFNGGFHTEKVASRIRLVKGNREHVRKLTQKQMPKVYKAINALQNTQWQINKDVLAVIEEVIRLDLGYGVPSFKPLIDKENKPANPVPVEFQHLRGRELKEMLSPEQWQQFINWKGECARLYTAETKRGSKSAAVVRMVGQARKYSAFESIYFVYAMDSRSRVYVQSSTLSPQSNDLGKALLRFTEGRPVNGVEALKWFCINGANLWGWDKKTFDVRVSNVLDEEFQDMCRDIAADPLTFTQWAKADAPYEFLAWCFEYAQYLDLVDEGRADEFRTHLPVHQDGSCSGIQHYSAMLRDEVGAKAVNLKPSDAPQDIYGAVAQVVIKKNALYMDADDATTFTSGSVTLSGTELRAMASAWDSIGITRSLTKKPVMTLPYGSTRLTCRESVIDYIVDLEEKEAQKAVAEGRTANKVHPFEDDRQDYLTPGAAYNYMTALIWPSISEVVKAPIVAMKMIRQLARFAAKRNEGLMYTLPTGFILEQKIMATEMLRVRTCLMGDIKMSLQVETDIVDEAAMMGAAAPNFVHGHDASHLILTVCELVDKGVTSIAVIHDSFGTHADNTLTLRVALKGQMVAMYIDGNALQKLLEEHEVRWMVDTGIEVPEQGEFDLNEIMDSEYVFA
Experimental: Mono- and dinucleotides obtained by enzymatic digestion of in vitro-synthesized RNAs were analyzed by HPLC using a Waters 625 instrument with a 996 PDA detector on a 4.5×250 mm Partisil 10SAX/25 column (Whatman). The program for elution of nucleotides comprised water for the first 5 min; a linear gradient of […]; a linear gradient of 87.5 to 500 mM of KH2PO4 over 30 min; and isocratic elution at 500 mM KH2PO4 for 21 min—all at a flow rate of 1 mL/min.
Two lengths of RNA, either uncapped or capped with one of the cap analogues, were synthesized by in vitro transcription. The DNA template used for both lengths of RNA was pSP−luc+ (Promega), which contains an SP6 bacteriophage promoter and a sequence encoding luciferase. To generate the short RNAs (43 bases exclusive of the cap), the plasmid was digested with Ncol. To generate the long RNAs (1706 bases, containing the entire luciferase coding region), the plasmid was digested with EcoRl. A typical 20 μL in vitro transcription reaction contained 40 mM Tris-HCl, pH 7.9, 6 mM MgCl2, 2 mM spermidine, 10 mM DTT, 2 μg BSA, 20 units of RNasin (Promega), 0.5 mM ATP, 0.5 mM CTP, 0.5 mM UTP, 0.1 mM GTP, 1 mM cap analogue (GpppG, m7GpppG, m^73′dGpppG, or m2^7,O3′GpppG), 0.2–1.0 μg DNA, and 20 units of SP6 polymerase (Promega). Reactions to synthesize the short RNAs also contained 28 μCi of [α-^32P]ATP (ICN), and those to synthesize the long RNAs contained 0.8 μCi of [α-^32P]CTP (ICN). Reaction mixtures were incubated for 60 min at 37° C., extracted with phenol and chloroform, and the solution was made 2 M in sodium acetate. The nucleic acids were then precipitated with 3 volumes of ethanol on dry ice for 5 min, and the mixture was centrifuged at 14,000 rpm for 30 min. The resulting pellet was dissolved in water, and the solution was made 0.2 M in sodium acetate. The nucleic acid was precipitated with 2.5 volumes of ethanol at 4° C. for 30 min, and the mixture was centrifuged at 14,000 rpm for 30 min. The pellet was allowed to air-dry and then dissolved in diethylpyrocarbonate-treated water.
The short RNAs were digested with 67 U RNase T2 (Life Technologies) in 15 μL of 0.14 M sodium acetate, pH 4.6, at 37° C. for 60 min. In some cases, the RNAs were subjected to a two-step digestion instead. The first digestion was with 10 U TAP (tobacco acid pyrophosphatase) (Epicentre Technologies) in 5 μL of 50 mM sodium acetate, pH 6.0, 1 mM EDTA, 0.1% β-mercaptoethanol, and 0.01% Triton X-100 at 37° C. for 60 min. The digestion was continued for 60 min at 37° C. with 67 U RNase T2 in a final volume of 16 μL of 0.12 M sodium acetate, pH 4.6. Samples were analyzed without further treatment by anion exchange HPLC as described above.
The structure of the ARCAs was designed to prevent incorporation into RNA in the reverse orientation. […] To obtain a higher proportion of radioactivity in the cap versus the internal positions, a shorter DNA template was produced by cleaving pSP−luc+ with Ncol instead of EcoRl. This digestion was expected to yield an RNA product of 43 bases (plus the cap).
RNase T2 digests RNA with no base specificity. Thus, it was expected to generate primarily 3′-NMPs from this RNA. Those nucleotide residues that were located 5′ to an A residue would acquire a ^32P-labeled 3′-phosphate by nearest-neighbor transfer. The pyrophosphate bonds in the cap, however, are not susceptible to RNase T2. Since the first nucleotide residue after the cap in the synthetic RNA is an A, the α-phosphate of [α-^32P]ATP would be transferred to the cap following RNase T2 digestion.

elF4E = target: T2, elF4E (Oryctolagus cuniculus, UniProt P29338); assay: Competitive inhibition of cell-free translation of globin mRNA in the RRL system; assay type: biochemical, rabbit; conditions: FIG. 3
T2 construct: A micrococcal nuclease-treated RRL (rabbit reticulocyte lysate) system was used for in vitro translation; from tissue; host or cells: rabbit reticulocyte lysate, micrococcal nuclease-treated
T2 sequence (P29338 whole entry): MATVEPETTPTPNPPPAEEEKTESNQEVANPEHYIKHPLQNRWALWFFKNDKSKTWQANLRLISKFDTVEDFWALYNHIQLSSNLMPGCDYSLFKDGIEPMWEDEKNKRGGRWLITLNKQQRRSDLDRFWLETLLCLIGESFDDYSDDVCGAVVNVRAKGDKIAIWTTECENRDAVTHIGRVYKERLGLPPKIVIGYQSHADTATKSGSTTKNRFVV
Experimental: The ability of cap analogues to inhibit cell-free translation in the RRL system programmed with globin mRNA was measured as described in Cai et al. (1999). Data were fit by least squares minimization to a theoretical rate equation.
We separately tested GpppG, m^7GpppG, and the two ARCAs for their ability to compete with natural globin mRNA for recognition by the translational machinery, and thereby to inhibit translation in an RRL system. […] Natural rabbit globin mRNA was translated at 5 μg/mL in the RRL system, and globin synthesis was detected by incorporation of [^3H]Leu into protein.

[1] = tested on: RRL (rabbit reticulocyte lysate) system; assay: Translation of capped luciferase mRNAs in the RRL system (luciferase activity); assay type: biochemical; conditions: translated 60 min in RRL, slope of luciferase activity versus mRNA concentration, FIG. 4
Text: Two lengths of RNA, either uncapped or capped with one of the cap analogues, were synthesized by in vitro transcription. The DNA template used for both lengths of RNA was pSP−luc+ (Promega), which contains an SP6 bacteriophage promoter and a sequence encoding luciferase. To generate the short RNAs (43 bases exclusive of the cap), the plasmid was digested with Ncol. To generate the long RNAs (1706 bases, containing the entire luciferase coding region), the plasmid was digested with EcoRl. […]
A micrococcal nuclease-treated RRL (rabbit reticulocyte lysate) system was used for in vitro translation as described in A. Cai et al., “Quantitative assessment of mRNA cap analogs as inhibitors of in vitro translation,” Biochemistry, vol.38, pp. 8538–8547 (1999). In some cases, the mRNA used in this system was natural rabbit globin mRNA, and protein synthesis was measured by incorporation of [^3H]Leu into a trichloroacetic acid-precipitable form. […]
FIG. 4 depicts the translational activity of the ARCA-capped mRNAs. […] The RNAs were translated for 60 min in the RRL system, and luciferase activity was measured in triplicate by luminometry (RLU, relative light units). […]

| Compound | Product observed RNase T2 + TAP: pGp* (normal orientation of the cap) (SP6 polymerase) [%] | Inhibition of translation (in words) (elF4E; natural rabbit globin mRNA in RRL system) | Extent of reverse capping (SP6 polymerase; experiments of FIG. 2 and Table 3) | Product observed RNase T2 + TAP: 7-methylated pGp* product (reverse orientation of the cap) (SP6 polymerase) [%] | Ki (elF4E; natural rabbit globin mRNA 5 μg/mL, [3H]Leu incorporation, least-squares fit of translation data, read-out: Kl, dissociation constant for the cap analogue•elF4E complex) [µM] | Orientation of incorporation into RNA (in words) (SP6 polymerase) | Translational efficiency of capped luciferase mRNA (in words) [1] |
| --- | --- | --- | --- | --- | --- | --- | --- |
| Nc1nc2c(ncn2[C@@H]2O[C@H](COP(=O)(O)OP(=O)(O)OP(=O)(O)OC[C@H]3O[C@@H](n4cnc5c(=O)[nH]c(N)nc54)[C@H](O)[C@@H]3O)[C@@H](O)[C@H]2O)c(=O)[nH]1 [GpppG, reference compound] | 100 | did not act as an inhibitor |  |  |  |  |  |
| Cn1c[n+](C2OC(COP(=O)(O)OP(=O)(O)OP(=O)(O)OCC3OC(n4cnc5c(=O)[nH]c(N)nc54)C(O)C3O)C(O)C2O)c2nc(N)nc([O-])c21 (centres unmarked) [m^7GpppG, m^7G(5′)ppp(5′)G, reference compound] | 67 |  | approximately 33% | 33 | 27.8 ± 12.6 |  |  |
| C[n+]1cn([C@@H]2O[C@H](COP(=O)(O)OP(=O)(O)OP(=O)(O)OC[C@H]3O[C@@H](n4cnc5c(=O)[nH]c(N)nc54)[C@H](O)[C@@H]3O)C[C@H]2O)c2nc(N)[nH]c(=O)c21 [m^73′dGpppG, P^1-3′-Deoxy-7-methylguanosine-5′ P^3-guanosine-5′triphosphate] | 100 |  |  | 0 |  | incorporated in only a single orientation | more efficient in translation than m^7GpppG-capped mRNA |
| CO[C@H]1[C@@H](O)[C@H](n2c[n+](C)c3c(=O)[nH]c(N)nc32)O[C@@H]1COP(=O)(O)OP(=O)(O)OP(=O)(O)OC[C@H]1O[C@@H](n2cnc3c(=O)[nH]c(N)nc32)[C@H](O)[C@@H]1O [m2^7,O3′GpppG, P^1-3′-O, 7-Dimethylguanosine-5′P^3-guanosine-5′triphosphate] | 100 |  |  | 0 |  | incorporated in only one orientation | more efficient in translation than m^7GpppG-capped mRNA |
